Experimental data: ChEMBL document CHEMBL4507327 (2021)

Key:
[1] = molecular target: Casein kinase I isoform gamma-3 (Homo sapiens, UniProt Q9Y6M4); assay: CK1gamma3(C1G3LGI5) Takeda global kinase panel
[2] = molecular target: Receptor tyrosine-protein kinase erbB-4 (Homo sapiens, UniProt Q15303); assay: HER4(ERB4CGF1) Takeda global kinase panel
[3] = molecular target: G protein-coupled receptor kinase 4 (Homo sapiens, UniProt P32298); assay: GRK4(GRK4LGRI) Takeda global kinase panel
[4] = molecular target: Serine/threonine-protein kinase 32A (Homo sapiens, UniProt Q8WU08); assay: YANK1(S32APHY1) Takeda global kinase panel
Serine/threonine-protein kinase 32A, sequence (Q8WU08 whole entry): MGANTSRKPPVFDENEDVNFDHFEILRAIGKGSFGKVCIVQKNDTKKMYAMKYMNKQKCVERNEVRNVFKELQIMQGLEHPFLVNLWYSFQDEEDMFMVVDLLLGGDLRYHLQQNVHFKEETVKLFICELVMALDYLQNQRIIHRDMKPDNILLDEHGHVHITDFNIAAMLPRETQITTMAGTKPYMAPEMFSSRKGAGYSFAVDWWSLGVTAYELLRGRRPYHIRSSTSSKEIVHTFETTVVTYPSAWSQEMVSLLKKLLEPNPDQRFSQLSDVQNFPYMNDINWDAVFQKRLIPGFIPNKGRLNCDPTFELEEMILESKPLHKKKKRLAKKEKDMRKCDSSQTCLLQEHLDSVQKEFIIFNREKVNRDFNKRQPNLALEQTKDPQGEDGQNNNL

[5] = molecular target: Bone morphogenetic protein receptor type-2 (Homo sapiens, UniProt Q13873); assay: BMPR2(BMR2LGN1) Takeda global kinase panel
[6] = molecular target: Epidermal growth factor receptor (Homo sapiens, UniProt P00533); assay: Inhibition of Epidermal Growth Factor (EGF) at 10 µM in the Eurofins-Panlabs radioligand binding assay (Eurofins_assay_225510); settings: Compound concentration 10.0 uM
[7] = molecular target: LIM domain kinase 1 (Homo sapiens, UniProt P53667); assay: LIMK1(LIM1LGY1) Takeda global kinase panel
[8] = molecular target: Myosin-IIIb (Homo sapiens, UniProt Q8WXR4); assay: MYO3B(MY3BLGA1) Takeda global kinase panel
[9] = molecular target: ALK tyrosine kinase receptor (Homo sapiens, UniProt Q9UM73); assay: ALK(ALK1LGY1) Takeda global kinase panel
[10] = molecular target: Serine/threonine-protein kinase 3 (Homo sapiens, UniProt Q13188); assay: MST2(STK3LGF1) Takeda global kinase panel
[11] = molecular target: Ephrin type-A receptor 4 (Homo sapiens, UniProt P54764); assay: EphA4(EPA4LGF1) Takeda global kinase panel
Ephrin type-A receptor 4, sequence (P54764 whole entry): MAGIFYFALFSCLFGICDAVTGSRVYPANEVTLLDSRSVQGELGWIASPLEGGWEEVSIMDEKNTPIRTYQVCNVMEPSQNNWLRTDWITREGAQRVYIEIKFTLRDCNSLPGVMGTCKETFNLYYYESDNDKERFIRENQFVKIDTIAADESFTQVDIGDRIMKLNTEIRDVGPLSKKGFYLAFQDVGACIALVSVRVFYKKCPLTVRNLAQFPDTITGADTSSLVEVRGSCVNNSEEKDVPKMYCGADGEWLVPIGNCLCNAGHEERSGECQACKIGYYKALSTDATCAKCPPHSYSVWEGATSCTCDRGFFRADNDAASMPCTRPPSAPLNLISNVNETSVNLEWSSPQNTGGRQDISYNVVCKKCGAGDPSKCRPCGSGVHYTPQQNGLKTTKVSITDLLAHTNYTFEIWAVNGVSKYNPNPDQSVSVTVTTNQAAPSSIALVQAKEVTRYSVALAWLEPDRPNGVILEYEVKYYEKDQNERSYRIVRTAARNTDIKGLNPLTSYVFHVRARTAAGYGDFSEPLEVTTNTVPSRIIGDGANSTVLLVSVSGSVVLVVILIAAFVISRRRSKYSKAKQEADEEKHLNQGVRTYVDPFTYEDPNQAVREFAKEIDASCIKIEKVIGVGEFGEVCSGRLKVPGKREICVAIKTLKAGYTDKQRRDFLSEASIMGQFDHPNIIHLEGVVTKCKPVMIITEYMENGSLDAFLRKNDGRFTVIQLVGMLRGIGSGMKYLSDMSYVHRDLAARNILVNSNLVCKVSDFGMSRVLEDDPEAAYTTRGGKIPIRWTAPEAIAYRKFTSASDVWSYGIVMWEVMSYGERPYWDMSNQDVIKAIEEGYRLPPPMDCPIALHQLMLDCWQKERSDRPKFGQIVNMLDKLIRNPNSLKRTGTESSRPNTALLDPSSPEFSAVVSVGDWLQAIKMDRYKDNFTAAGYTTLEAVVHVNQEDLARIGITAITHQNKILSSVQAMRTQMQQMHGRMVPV

[12] = molecular target: Serine/threonine-protein kinase PAK 4 (Homo sapiens, UniProt O96013); assay: PAK4(PAK4CGY1) Takeda global kinase panel
[13] = molecular target: B2 bradykinin receptor (Homo sapiens) (UniProt P30411); settings: Compound concentration 10.0 uM
[14] = molecular target: Serine/threonine-protein kinase 32B (Homo sapiens, UniProt Q9NY57); assay: YANK2(S32BLGY2) Takeda global kinase panel
[15] = molecular target: Tyrosine-protein kinase JAK3 (Homo sapiens, UniProt P52333); assay: JAK3(JAK3LGRG) Takeda global kinase panel
[16] = molecular target: T1, 5-hydroxytryptamine receptor 1A (Homo sapiens) (UniProt P08908); settings: Compound concentration 10.0 uM
T1 sequence (whole entry): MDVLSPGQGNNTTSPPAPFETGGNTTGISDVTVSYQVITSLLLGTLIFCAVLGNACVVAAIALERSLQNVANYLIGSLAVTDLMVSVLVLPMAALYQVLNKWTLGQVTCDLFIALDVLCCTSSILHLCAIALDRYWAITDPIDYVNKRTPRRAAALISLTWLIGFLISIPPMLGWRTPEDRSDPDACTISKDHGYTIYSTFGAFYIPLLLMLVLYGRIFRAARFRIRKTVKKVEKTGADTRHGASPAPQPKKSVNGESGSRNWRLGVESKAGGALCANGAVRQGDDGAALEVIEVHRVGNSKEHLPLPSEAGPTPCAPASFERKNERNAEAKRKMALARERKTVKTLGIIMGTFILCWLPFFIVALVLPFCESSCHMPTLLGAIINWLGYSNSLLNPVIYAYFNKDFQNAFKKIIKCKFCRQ

[17] = molecular target: Tyrosine-protein kinase FRK (Homo sapiens, UniProt P42685); assay: FRK(FRK1LGF1) Takeda global kinase panel
[18] = molecular target: Cell division cycle 7-related protein kinase (Homo sapiens, UniProt O00311); assay: CDC7(CDC7CGP1) Takeda global kinase panel
[19] = molecular target: Citron Rho-interacting kinase (Homo sapiens, UniProt O14578); assay: CRIK(CIT1LGY1) Takeda global kinase panel
[20] = molecular target: Eukaryotic translation initiation factor 2-alpha kinase 3 (Homo sapiens, UniProt Q9NZJ5); assay: PERK [PEK(EIK3CGQ1)] Takeda global kinase panel
[21] = molecular target: NT-3 growth factor receptor (Homo sapiens, UniProt Q16288); assay: TRKC(NTR3LGN1) Takeda global kinase panel
[22] = molecular target: Serine/threonine-protein kinase D2 (Homo sapiens, UniProt Q9BZL6); assay: PKD2(PRD2LHY1) Takeda global kinase panel
[23] = molecular target: Tyrosine-protein kinase CSK (Homo sapiens, UniProt P41240); assay: CSK(CSK1LGF1) Takeda global kinase panel
[24] = molecular target: Glucocorticoid receptor (Homo sapiens) (UniProt P04150); settings: Compound concentration 10.0 uM
Glucocorticoid receptor (Homo sapiens), sequence (P04150 whole entry): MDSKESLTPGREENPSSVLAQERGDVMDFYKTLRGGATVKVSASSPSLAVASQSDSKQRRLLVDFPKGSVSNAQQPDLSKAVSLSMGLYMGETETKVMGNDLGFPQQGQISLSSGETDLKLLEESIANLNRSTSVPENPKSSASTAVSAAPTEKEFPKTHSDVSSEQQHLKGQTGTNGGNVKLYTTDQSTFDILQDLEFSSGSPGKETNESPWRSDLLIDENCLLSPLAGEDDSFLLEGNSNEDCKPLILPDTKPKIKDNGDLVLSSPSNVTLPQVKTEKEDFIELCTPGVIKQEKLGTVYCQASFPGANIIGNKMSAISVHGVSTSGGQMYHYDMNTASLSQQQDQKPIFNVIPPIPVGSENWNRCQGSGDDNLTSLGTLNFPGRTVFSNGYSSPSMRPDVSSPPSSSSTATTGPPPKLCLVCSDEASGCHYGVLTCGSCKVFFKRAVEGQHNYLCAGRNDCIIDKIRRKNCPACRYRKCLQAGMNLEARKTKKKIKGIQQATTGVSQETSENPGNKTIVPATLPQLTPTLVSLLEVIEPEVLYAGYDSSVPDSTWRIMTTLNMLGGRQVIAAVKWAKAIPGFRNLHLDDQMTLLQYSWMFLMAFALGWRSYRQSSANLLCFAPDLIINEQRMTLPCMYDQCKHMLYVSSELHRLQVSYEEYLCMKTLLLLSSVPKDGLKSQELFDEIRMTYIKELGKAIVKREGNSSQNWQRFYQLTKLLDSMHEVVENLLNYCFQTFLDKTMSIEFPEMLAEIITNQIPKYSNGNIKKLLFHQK

[25] = molecular target: Homeodomain-interacting protein kinase 4 (Homo sapiens, UniProt Q8NE63); assay: HIPK4(HIP4LHY1) Takeda global kinase panel
[26] = molecular target: Cyclin-dependent kinase 7 (Homo sapiens, UniProt P50613); assay: CDK7(CDK7CGS1) Takeda global kinase panel
[27] = molecular target: Bromodomain testis-specific protein (Homo sapiens, UniProt Q58F21); assay: BRDT(BRDTLGRC) Takeda global kinase panel
[28] = molecular target: SRSF protein kinase 3 (Homo sapiens, UniProt Q9UPE1); assay: MSSK1(SRP3MHRL) Takeda global kinase panel
[29] = molecular target: Sodium-dependent serotonin transporter (Homo sapiens) (UniProt P31645); settings: Compound concentration 10.0 uM
Sodium-dependent serotonin transporter (Homo sapiens), sequence (P31645 whole entry, looked up): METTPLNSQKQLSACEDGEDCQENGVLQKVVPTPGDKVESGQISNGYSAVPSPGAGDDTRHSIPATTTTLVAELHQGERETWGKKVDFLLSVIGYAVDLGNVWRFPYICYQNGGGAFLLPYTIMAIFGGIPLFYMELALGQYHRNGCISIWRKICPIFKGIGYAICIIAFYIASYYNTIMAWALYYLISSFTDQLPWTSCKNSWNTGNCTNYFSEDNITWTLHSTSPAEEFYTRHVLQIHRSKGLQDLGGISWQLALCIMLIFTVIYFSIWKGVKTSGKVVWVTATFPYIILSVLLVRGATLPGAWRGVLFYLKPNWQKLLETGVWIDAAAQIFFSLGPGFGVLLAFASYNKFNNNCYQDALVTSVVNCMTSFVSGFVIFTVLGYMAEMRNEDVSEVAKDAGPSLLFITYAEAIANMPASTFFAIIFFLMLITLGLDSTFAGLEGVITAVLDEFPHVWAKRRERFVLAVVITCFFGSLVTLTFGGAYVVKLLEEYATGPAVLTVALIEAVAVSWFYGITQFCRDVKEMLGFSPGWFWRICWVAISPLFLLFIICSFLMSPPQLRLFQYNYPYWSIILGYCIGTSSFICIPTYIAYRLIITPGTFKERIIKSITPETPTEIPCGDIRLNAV

[30] = molecular target: Mitogen-activated protein kinase 15 (Homo sapiens, UniProt Q8TD08); assay: ERK7(MP15LGY1) Takeda global kinase panel
[31] = molecular target: Kappa-type opioid receptor (Homo sapiens) (UniProt P41145); settings: Compound concentration 10.0 uM
[32] = molecular target: Protein-tyrosine kinase 2-beta (Homo sapiens, UniProt Q14289); assay: PYK2(PT2BLHF1) Takeda global kinase panel
[33] = molecular target: PAS domain-containing serine/threonine-protein kinase (Homo sapiens, UniProt Q96RG2); assay: PASK(PASKPHY1) Takeda global kinase panel
[34] = molecular target: Serine/threonine-protein kinase PLK1 (Homo sapiens, UniProt P53350); assay: PLK1(PLK1LGY1) Takeda global kinase panel
[35] = molecular target: Cyclin-dependent kinase 17 (Homo sapiens, UniProt Q00537); assay: PCTAIRE2(CD17SGS1) Takeda global kinase panel
Cyclin-dependent kinase 17, sequence (Q00537 whole entry): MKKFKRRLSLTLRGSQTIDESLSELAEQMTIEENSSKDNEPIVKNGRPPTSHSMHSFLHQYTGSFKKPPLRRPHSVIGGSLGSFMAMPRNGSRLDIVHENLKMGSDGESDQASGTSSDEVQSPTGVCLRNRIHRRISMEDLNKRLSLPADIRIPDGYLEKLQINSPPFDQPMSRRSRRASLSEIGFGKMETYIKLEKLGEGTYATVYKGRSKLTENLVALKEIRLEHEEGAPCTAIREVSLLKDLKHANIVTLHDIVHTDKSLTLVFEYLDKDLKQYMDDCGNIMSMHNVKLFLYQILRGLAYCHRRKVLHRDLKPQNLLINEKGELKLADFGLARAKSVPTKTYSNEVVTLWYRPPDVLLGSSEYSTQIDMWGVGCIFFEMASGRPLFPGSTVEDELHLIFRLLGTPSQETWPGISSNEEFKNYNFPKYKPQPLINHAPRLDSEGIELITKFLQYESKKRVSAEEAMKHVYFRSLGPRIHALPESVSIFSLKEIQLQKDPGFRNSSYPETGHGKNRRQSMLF

[36] = molecular target: Mitotic checkpoint serine/threonine-protein kinase BUB1 (Homo sapiens, UniProt O43683); assay: Bub1(BUB1LGRL) Takeda global kinase panel
[37] = molecular target: Serine/threonine-protein kinase PLK4 (Homo sapiens, UniProt O00444); assay: PLK4(PLK4LGF1) Takeda global kinase panel
[38] = molecular target: Adenosine receptor A2a (Homo sapiens) (UniProt P29274); settings: Compound concentration 10.0 uM
[39] = molecular target: Tyrosine-protein kinase HCK (Homo sapiens, UniProt P08631); assay: HCK(HCK1LGF1) Takeda global kinase panel
[40] = molecular target: Ephrin type-A receptor 3 (Homo sapiens, UniProt P29320); assay: EphA3(EPA3LGD5) Takeda global kinase panel
Ephrin type-A receptor 3, sequence (P29320 whole entry): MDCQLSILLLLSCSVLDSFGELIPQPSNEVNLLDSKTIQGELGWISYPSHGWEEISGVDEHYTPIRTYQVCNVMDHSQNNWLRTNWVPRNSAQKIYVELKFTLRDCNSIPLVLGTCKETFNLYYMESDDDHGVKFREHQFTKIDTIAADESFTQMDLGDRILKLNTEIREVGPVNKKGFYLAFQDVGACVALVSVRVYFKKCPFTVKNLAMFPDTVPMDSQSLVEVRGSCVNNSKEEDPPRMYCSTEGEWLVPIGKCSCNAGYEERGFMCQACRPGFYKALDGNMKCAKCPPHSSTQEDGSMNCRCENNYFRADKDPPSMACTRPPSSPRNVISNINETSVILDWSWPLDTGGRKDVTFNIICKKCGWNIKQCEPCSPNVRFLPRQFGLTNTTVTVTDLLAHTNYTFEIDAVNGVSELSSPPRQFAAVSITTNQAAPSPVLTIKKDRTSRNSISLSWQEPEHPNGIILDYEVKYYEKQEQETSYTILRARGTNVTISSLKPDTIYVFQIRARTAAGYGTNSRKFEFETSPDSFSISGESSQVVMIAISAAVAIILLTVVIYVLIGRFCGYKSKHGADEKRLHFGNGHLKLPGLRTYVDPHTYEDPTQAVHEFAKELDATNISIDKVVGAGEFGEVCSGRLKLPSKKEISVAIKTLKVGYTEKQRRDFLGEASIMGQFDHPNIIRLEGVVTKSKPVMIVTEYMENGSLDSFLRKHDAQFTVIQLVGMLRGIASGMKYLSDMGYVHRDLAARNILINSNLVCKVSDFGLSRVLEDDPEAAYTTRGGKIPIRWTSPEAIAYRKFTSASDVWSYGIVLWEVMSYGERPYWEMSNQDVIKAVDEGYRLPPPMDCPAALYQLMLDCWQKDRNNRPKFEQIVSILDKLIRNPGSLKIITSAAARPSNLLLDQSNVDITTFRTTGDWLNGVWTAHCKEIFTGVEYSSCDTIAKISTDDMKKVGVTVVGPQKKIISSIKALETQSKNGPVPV

G protein-coupled receptor kinase 4, sequence (P32298 whole entry): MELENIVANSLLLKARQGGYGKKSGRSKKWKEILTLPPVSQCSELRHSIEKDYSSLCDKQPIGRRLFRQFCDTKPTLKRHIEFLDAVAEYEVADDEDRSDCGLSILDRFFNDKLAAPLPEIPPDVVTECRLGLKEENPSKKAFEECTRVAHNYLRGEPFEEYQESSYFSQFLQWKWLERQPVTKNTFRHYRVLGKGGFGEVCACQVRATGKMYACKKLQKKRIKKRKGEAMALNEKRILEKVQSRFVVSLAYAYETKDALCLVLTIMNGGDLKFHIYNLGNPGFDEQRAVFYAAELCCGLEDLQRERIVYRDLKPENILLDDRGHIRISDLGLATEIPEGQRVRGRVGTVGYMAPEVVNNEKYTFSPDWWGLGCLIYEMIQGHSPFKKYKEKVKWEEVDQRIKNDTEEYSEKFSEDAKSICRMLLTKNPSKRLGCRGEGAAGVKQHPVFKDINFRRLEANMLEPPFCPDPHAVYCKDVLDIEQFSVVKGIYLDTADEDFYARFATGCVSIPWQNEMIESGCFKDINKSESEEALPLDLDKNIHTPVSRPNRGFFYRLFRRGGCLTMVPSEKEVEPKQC

CN1C(=O)[C@@H](N2CCc3cn(Cc4ccccc4)nc3C2=O)COc2ccccc21 [TP-030-1]
IC50 [1]: 1000 nM | IC50 [2]: 1000 nM | IC50 [3]: 1000 nM | IC50 [4]: 1000 nM | IC50 [5]: 1000 nM | inhibition [6]: -3% | IC50 [7]: 1000 nM | IC50 [8]: 1000 nM | IC50 [9]: 1000 nM | IC50 [10]: 1000 nM | IC50 [11]: 1000 nM | IC50 [12]: 1000 nM | inhibition [13]: 4% | IC50 [14]: 1000 nM | IC50 [15]: 1000 nM | inhibition [16]: -6% | IC50 [17]: 1000 nM | IC50 [18]: 1000 nM | IC50 [19]: 1000 nM | IC50 [20]: 1000 nM | IC50 [21]: 1000 nM | IC50 [22]: 1000 nM | IC50 [23]: 1000 nM | inhibition [24]: 5% | IC50 [25]: 1000 nM | IC50 [26]: 1000 nM | IC50 [27]: 1000 nM | IC50 [28]: 1000 nM | inhibition [29]: -4% | IC50 [30]: 1000 nM | inhibition [31]: 3% | IC50 [32]: 1000 nM | IC50 [33]: 1000 nM | IC50 [34]: 1000 nM | IC50 [35]: 1000 nM | IC50 [36]: 1000 nM | IC50 [37]: 1000 nM | inhibition [38]: 10% | IC50 [39]: 1000 nM | IC50 [40]: 1000 nM

CN1C(=O)[C@@H](N2CCc3cn(CC4CCS(=O)(=O)CC4)nc3C2=O)COc2ccccc21 [TP-030n]
IC50 [1]: 1000 nM | IC50 [2]: 1000 nM | IC50 [3]: 1000 nM | IC50 [4]: 1000 nM | IC50 [5]: 1000 nM | inhibition [6]: 4% | IC50 [7]: 1000 nM | IC50 [8]: 1000 nM | IC50 [9]: 1000 nM | IC50 [10]: 1000 nM | IC50 [11]: 1000 nM | IC50 [12]: 1000 nM | inhibition [13]: -4% | IC50 [14]: 1000 nM | IC50 [15]: 1000 nM | inhibition [16]: 3% | IC50 [17]: 1000 nM | IC50 [18]: 1000 nM | IC50 [19]: 1000 nM | IC50 [20]: 1000 nM | IC50 [21]: 1000 nM | IC50 [22]: 1000 nM | IC50 [23]: 1000 nM | inhibition [24]: 3% | IC50 [25]: 1000 nM | IC50 [26]: 1000 nM | IC50 [27]: 1000 nM | IC50 [28]: 1000 nM | inhibition [29]: 5% | IC50 [30]: 1000 nM | inhibition [31]: 3% | IC50 [32]: 1000 nM | IC50 [33]: 1000 nM | IC50 [34]: 1000 nM | IC50 [35]: 1000 nM | IC50 [36]: 1000 nM | IC50 [37]: 1000 nM | inhibition [38]: -8% | IC50 [39]: 1000 nM | IC50 [40]: 1000 nM
